In patent US20080139520A1, “Altering cholesterol and fat uptake by novel allosteric inhibitors of pancreatic phospholipase A2” (priority 2006, published 2008):
Where “and” joins values, the source holds several entries; their conditions need not be identical. Equal values may be shown once.

Assays:
human pancreatic IB PLA2 [1] = biological target: T1, human pancreatic IB PLA2 (Homo sapiens, UniProt P04054); assay: Rate-lowering of hydrolysis of DMPC + 0.05 mole fraction cholate vesicles by human pancreatic PLA2; type: biochemical; conditions: 0.03 mole fraction; DMPC + 0.05 mole fraction cholate
T1 construct: gift of Dr. Suren Tatulian (Orlando, Fla.)
T1 sequence (P04054 23-148): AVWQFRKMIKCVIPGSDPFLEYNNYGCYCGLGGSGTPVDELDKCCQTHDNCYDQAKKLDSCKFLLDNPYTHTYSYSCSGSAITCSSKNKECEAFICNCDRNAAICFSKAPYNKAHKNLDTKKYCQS
Description: (§1) Independent support for selective binding of the rate lowering compounds to a regulatory site on PLA2 comes from the rate-lowering effect of such compounds on the hydrolysis of DMPC vesicles containing 0.05 mole fraction cholate.
(§2) Scores of other compounds in guggul were not active.

pig pancreatic IB PLA2 = biological target: T2, pig pancreatic IB PLA2 (Sus scrofa, UniProt P00592); assay: Rate-lowering of hydrolysis of DMPC + 0.05 mole fraction cholate vesicles by pig pancreatic PLA2; type: biochemical
T2 construct: made in house
T2 sequence (P00592 23-146): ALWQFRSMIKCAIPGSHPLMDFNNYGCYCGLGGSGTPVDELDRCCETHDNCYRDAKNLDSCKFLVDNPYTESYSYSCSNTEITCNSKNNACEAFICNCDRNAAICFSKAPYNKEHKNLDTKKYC
Description: as §1, §2

PLA2 R6W/W3F = biological target: T3, PLA2 R6W/W3F (Sus scrofa, UniProt P00592, R28W/W25F); assay: Bile salt binding by Trp emission, R6W/W3F PLA2; set-up: species or system pig; conditions: read-out: KEB
T3 construct: made in house
T3 sequence (P00592 23-146 W25F/R28W): as the sequence (P00592 23-146) above, with W3F, R6W counted along it
Method: (§3) Fluorescence emission spectrum or time course of the intensity change from tryptophan or the resonance energy transfer probe TMA-DPH were measured in the ratio mode on SLM-Aminco AB2 in a 1 cm cuvette [31, 32] in 1.6 ml stirred buffer containing 1 or 2 μM PLA2 in 10 mM Tris, 5 mM CaCl2 and 20 mM NaCl at pH 8.0 and 24° C. The slit-widths were 4 nm with excitation at 280.
(§4) As shown in [45], the binding of decylsulfate to the R site is accompanied by a modest increase in the emission intensity from Trp-3. […] As summarized in Table 2, the value of KEB depends on the position of Trp, although Hill coefficient remains 1. […] Note that KEB for the EB complex of ΔPLA2 is about 7-fold larger than that for PLA2.

PLA2 K10W/W3F = biological target: T4, PLA2 K10W/W3F (Sus scrofa, UniProt P00592, K32W/W25F); assay: Bile salt binding by Trp emission, K10W/W3F PLA2; set-up: species or system pig; conditions: read-out: KEB
T4 construct: made in house
T4 sequence (P00592 23-146 W25F/K32W): as the sequence (P00592 23-146) above, with W3F, K10W counted along it
Method: as §3, §4

PLA2 L19W/W3F = biological target: T5, PLA2 L19W/W3F (Sus scrofa, UniProt P00592, L41W/W25F); assay: Bile salt binding by Trp emission, L19W/W3F PLA2; set-up: species or system pig; conditions: read-out: KEB
T5 construct: made in house
T5 sequence (P00592 23-146 W25F/L41W): as the sequence (P00592 23-146) above, with W3F, L19W counted along it
Method: as §3, §4

PLA2 R6M = PLA2 R6M (Sus scrofa, UniProt P00592, R28M); assay: Bile salt binding by Trp emission, R6M PLA2; set-up: species or system pig; conditions: read-out: KEB
PLA2 R6M, sequence (P00592 23-146 R28M): as the sequence (P00592 23-146) above, with R6M counted along it
Method: as §3, §4

PLA2 K56W/W3F = biological target: T6, PLA2 K56W/W3F (Sus scrofa, UniProt P00592, K78W/W25F); assay: Bile salt binding by Trp emission, K56W/W3F PLA2; set-up: species or system pig; conditions: read-out: KEB
T6 construct: made in house
T6 sequence (P00592 23-146 W25F/K78W): as the sequence (P00592 23-146) above, with W3F, K56W counted along it
Method: as §3, §4

PLA2 K53W/W3F = biological target: T7, PLA2 K53W/W3F (Sus scrofa, UniProt P00592, R75W/W25F); assay: Bile salt binding by Trp emission, K53W/W3F PLA2; set-up: species or system pig; conditions: read-out: KEB
T7 construct: made in house
T7 sequence (P00592 23-146 W25F/R75W): as the sequence (P00592 23-146) above, with W3F, R53W counted along it
Method: as §3, §4

WT (wild type) pig PLA2 = biological target: T8, WT (wild type) pig PLA2 (Sus scrofa, UniProt P00592); assay: PLA2 catalyzed hydrolysis of sonicated DMPC vesicles with added bile salt (pH-stat); type: biochemical; conditions: for effect of bile salt on the rate of hydrolysis (monophasic/biphasic): DMPC vesicles, pancreatic PLA2
T8 construct: made in house
T8 sequence (P00592 23-146): as the sequence (P00592 23-146) above
Method: Aqueous dispersion of phospholipid was sonicated in a bath type sonicator. Virtually transparent suspension was annealed for at least 4 hours at room temperature before use. Reaction progress for the PLA2 catalyzed hydrolysis of sonicated DMPC (1 mM) vesicles was measured by pH-stat titration (Radiometer) with 1 mM 2-aminopropanediol in 4 ml reaction buffer containing 5 mM CaCl2 for DMPC (or 0.5 mM for DMPM), 1 mM NaCl, […] atmosphere. Reaction was initiated by adding 0.1 μg enzyme in 1-10 μl solution. The pH stat method was also used for monitoring the rate of hydrolysis of DMPM (0.4 mM) vesicles in the presence of polymyxin [27-29], or of the mixed-micelles of POPC with bile salts in 1:2 ratio [13, 30].
Delay before the onset of the stationary phase of the PLA2 catalyzed reaction progress for the hydrolysis of zwitterionic phospholipids has been extensively characterized. […] The apparent rates in FIG. 3 were obtained from the initial slopes of such reaction progress during which <5% of the total substrate is hydrolyzed.
The CMC of the bile salts used in this study range between 0.8 to 5 mM.

PLA2 K87W/W3F = biological target: T9, PLA2 K87W/W3F (Sus scrofa, UniProt P00592, K109W/W25F); assay: Bile salt binding by Trp emission, K87W/W3F PLA2; set-up: species or system pig; conditions: read-out: KEB
T9 construct: made in house
T9 sequence (P00592 23-146 W25F/K109W): as the sequence (P00592 23-146) above, with W3F, K87W counted along it
Method: as §3, §4

PLA2 L2W/W3F = biological target: T10, PLA2 L2W/W3F (Sus scrofa, UniProt P00592, L24W/W25F); assay: Bile salt binding by Trp emission, L2W/W3F PLA2; set-up: species or system pig; conditions: read-out: KEB
T10 construct: made in house
T10 sequence (P00592 23-146 L24W/W25F): as the sequence (P00592 23-146) above, with L2W, W3F counted along it
Method: as §3, §4

PLA2 M20W/W3F = biological target: T11, PLA2 M20W/W3F (Sus scrofa, UniProt P00592, M42W/W25F); assay: Bile salt binding by Trp emission, M20W/W3F PLA2; set-up: species or system pig; conditions: read-out: KEB
T11 construct: made in house
T11 sequence (P00592 23-146 W25F/M42W): as the sequence (P00592 23-146) above, with W3F, M20W counted along it
Method: as §3, §4

PLA2 K10M = PLA2 K10M (Sus scrofa, UniProt P00592, K32M); assay: Bile salt binding by Trp emission, K10M PLA2; set-up: species or system pig; conditions: read-out: KEB
PLA2 K10M, sequence (P00592 whole entry K32M): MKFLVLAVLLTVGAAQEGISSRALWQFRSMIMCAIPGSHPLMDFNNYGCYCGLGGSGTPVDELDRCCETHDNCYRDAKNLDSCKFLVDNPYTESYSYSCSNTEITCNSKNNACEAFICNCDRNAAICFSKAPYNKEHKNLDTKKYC
Method: as §3, §4

PLA2 (3W)(WT) = biological target: T12, PLA2 (3W)(WT) (Sus scrofa, UniProt P00592); assay: Bile salt binding by Trp emission, (3W)(WT) PLA2; set-up: species or system pig; conditions: read-out: KEB
T12 construct: made in house
T12 sequence (P00592 23-146): as the sequence (P00592 23-146) above
Method: as §3, §4

PLA2 R6M/K10M = PLA2 R6M/K10M (Sus scrofa, UniProt P00592, K32M/R28M); assay: Bile salt binding by Trp emission, R6M/K10M PLA2; set-up: species or system pig; conditions: read-out: KEB
PLA2 R6M/K10M, sequence (P00592 23-146 R28M/K32M): as the sequence (P00592 23-146) above, with R6M, K10M counted along it
Method: as §3, §4

PLA2 [2] = biological target: T13, PLA2 (Sus scrofa, UniProt P00592); assay: Quenching of RET signal from TMA-DPH bound to PLA2 by bile salts; type: binding, pig; conditions: 1 μM PLA2 and TMA-DPH, pH 8.0
T13 construct: made in house
T13 sequence (P00592 23-146): as the sequence (P00592 23-146) above
Method: as §3

PLA2 [3] = biological target: T13, PLA2; assay: Isothermal calorimetric titration of PLA2 with bile salt; type: binding, pig; conditions: ITC, 8.5 μM PLA2; for Kd: read-out: KEB
Method: ITC titration of PLA2 with <1 mM (below the CMC) bile salt stock solution was carried out on the Microcal calorimeter (model VP-itc) with cell volume of 1.42 ml with stirring at 300 rpm. Successive injections were made every 5 min. Standard software was used for the peak integration. The heat change with the internal calibration associated with the dilution of the titrant in the […] was subtracted from the heat change obtained by the injection of the bile salt in the presence of 8.5 μM PLA2. The net heat change per injection in the presence of PLA2 was integrated to obtain the total heat change as a function of the total added amphiphile concentration.

human pancreatic IB PLA2 [4] = biological target: T1, human pancreatic IB PLA2; assay: Hydrolysis of DMPC vesicles by human IB PLA2 with added bile salt; type: biochemical; conditions: 1 mM DMPC
Method: (§5) Aqueous dispersion of phospholipid was sonicated in a bath type sonicator. Virtually transparent suspension was annealed for at least 4 hours at room temperature before use. Reaction progress for the PLA2 catalyzed hydrolysis of sonicated DMPC (1 mM) vesicles was measured by pH-stat titration (Radiometer) with 1 mM 2-aminopropanediol in 4 ml reaction buffer containing 5 mM CaCl2 for DMPC (or 0.5 mM for DMPM), 1 mM NaCl, and 0.1 mM EDTA at pH 8.0 and 24° C. in the nitrogen purged closed atmosphere. Reaction was initiated by adding 0.1 μg enzyme in 1-10 μl solution. The pH stat method was also used for monitoring the rate of hydrolysis of DMPM (0.4 mM) vesicles in the presence of polymyxin [27-29], or of the mixed-micelles of POPC with bile salts in 1:2 ratio [13, 30].

PLA2 [5] = biological target: T13, PLA2; assay: PLA2 catalyzed hydrolysis of mixed micelles of POPC with bile salts; type: biochemical, pig; conditions: 1 mM POPC, 0.7 mole fraction bile salt
Method: as §5

In the case of `CC(=CCCC(C)C1CCC2(C)C3=CCC4C(C)(C)C(O)CCC4(C)C3CCC12C)C(=O)O` (stereo not drawn) [Masticadienolic acid], the “Relative Rate-lowering (%) Activity, hPLA2” value (human pancreatic IB PLA2 [1]) is reported as 66%, the “Relative Rate-lowering (%) Activity, pPLA2” value (pig pancreatic IB PLA2; 0.03 mole fraction, DMPC + 0.05 mole fraction cholate) is reported as >95% and the “relative effectiveness in lowering the rate with pig pancreatic PLA2” value (pig pancreatic IB PLA2; DMPC vesicles containing 0.05 mole fraction cholate, FIG. 6) is reported as “effective by another factor of ten”.
`C[C@H](CCC(=O)NCCS(=O)(=O)O)[C@H]1CC[C@H]2[C@@H]3CC[C@@H]4C[C@H](O)CC[C@]4(C)[C@H]3C[C@H](O)[C@]12C` [TDOC, taurodeoxycholate] gave a Kd (PLA2 R6W/W3F) of 4 µM, a Kd (PLA2 K10W/W3F) of 10 µM and a Kd (PLA2 L19W/W3F) of 44 µM. For the same compound, the Kd (PLA2 R6M) was > 100 µM, the Kd (PLA2 K56W/W3F) was 35 µM and the Kd (PLA2 K53W/W3F) was 33 µM. For the same compound, the “effect of bile salt on the rate of hydrolysis (monophasic/biphasic)” value (from here on “effect of bile salt … (monophasic/biphasic)”) (WT (wild type) pig PLA2) was “biphasic effect”, the Kd (PLA2 K87W/W3F) was 2 µM and the Kd (PLA2 L2W/W3F) was 20 µM. The Kd (PLA2 M20W/W3F) was 2 µM, the Kd (PLA2 K10M) was > 100 µM and the Kd (PLA2 (3W)(WT)) was 30 µM. The Kd (PLA2 R6M/K10M) was 10 µM.
`C[C@H](CCC(=O)NCCS(=O)(=O)O)[C@H]1CC[C@H]2[C@@H]3[C@@H](O)C[C@@H]4C[C@H](O)CC[C@]4(C)[C@H]3CC[C@]12C` [TUDOC, tauroursodeoxycholate] was tested, and the “efficacy to quench RET signal from TMA-DPH bound to PLA2” value (PLA2 [2]) was “most effective”, the Kd (PLA2 [3]) was < 2 µM and the “effect of bile salt … (monophasic/biphasic)” value (WT (wild type) pig PLA2) was “biphasic effect”.
With `C[C@H](CCC(=O)O)[C@H]1CC[C@H]2[C@@H]3[C@@H](O)C[C@@H]4C[C@H](O)CC[C@]4(C)[C@H]3CC[C@]12C` [UDOC, ursodeoxycholate] the Kd (PLA2 [3]) was 2 to 38 µM and 37 µM.
In the case of `C[C@H](CCC(=O)O)[C@H]1CC[C@H]2[C@@H]3[C@H](O)C[C@@H]4C[C@H](O)CC[C@]4(C)[C@H]3C[C@H](O)[C@]12C` [cholate, reference compound], the “efficacy to quench RET signal from TMA-DPH bound to PLA2” value (PLA2 [2]) is reported as “least effective”, the “heat change on titration of PLA2” value (PLA2 [3]) is reported as “No heat change” and the “peak rate of hydrolysis of DMPC vesicles” value (WT (wild type) pig PLA2; 1 mM DMPC, 24° C., cholate above 0.04 mM) is reported as 140 s⁻¹. For the same compound, the “effect of bile salt … (monophasic/biphasic)” value (WT (wild type) pig PLA2) was “only a rate increase”, the “effect on rate of hydrolysis of DMPC vesicles by human pancreatic IB PLA2” value (human pancreatic IB PLA2 [4]) was “increases” and the “initial rate of hydrolysis of POPC in mixed micelles” value (PLA2 [5]) was 150 s⁻¹.
In the case of `C[C@H](CCC(=O)NCC(=O)O)[C@H]1CC[C@H]2[C@@H]3[C@H](O)C[C@@H]4C[C@H](O)CC[C@]4(C)[C@H]3C[C@H](O)[C@]12C` [glycocholate], the “effect of bile salt … (monophasic/biphasic)” value (WT (wild type) pig PLA2) is reported as “biphasic effect”.
